Measurements reported in patent US12065436B2, “Cardiac sarcomere inhibitors” (Cytokinetics, Inc., priority 2018, dated 2024).
Like-named read-outs stand apart in the source and are kept apart here.

How the values were obtained:
[1] = target: bovine cardiac myofibrils (full-length cardiac myosin ATPase in the native sarcomere) (Bos taurus (Bovine), UniProt Q9BE39); experiment: Skinned bovine cardiac myofibril ATPase assay (PK/LDH-coupled); format: biochemical; details: Ca2+ activating to 75% of maximal rate; for CDMF75 IC15: concentration giving 15% inhibition; for IC50: read-out: CDMF75 IC50
bovine cardiac myofibrils (full-length cardiac myosin ATPase in the native sarcomere), sequence (Q9BE39 whole entry): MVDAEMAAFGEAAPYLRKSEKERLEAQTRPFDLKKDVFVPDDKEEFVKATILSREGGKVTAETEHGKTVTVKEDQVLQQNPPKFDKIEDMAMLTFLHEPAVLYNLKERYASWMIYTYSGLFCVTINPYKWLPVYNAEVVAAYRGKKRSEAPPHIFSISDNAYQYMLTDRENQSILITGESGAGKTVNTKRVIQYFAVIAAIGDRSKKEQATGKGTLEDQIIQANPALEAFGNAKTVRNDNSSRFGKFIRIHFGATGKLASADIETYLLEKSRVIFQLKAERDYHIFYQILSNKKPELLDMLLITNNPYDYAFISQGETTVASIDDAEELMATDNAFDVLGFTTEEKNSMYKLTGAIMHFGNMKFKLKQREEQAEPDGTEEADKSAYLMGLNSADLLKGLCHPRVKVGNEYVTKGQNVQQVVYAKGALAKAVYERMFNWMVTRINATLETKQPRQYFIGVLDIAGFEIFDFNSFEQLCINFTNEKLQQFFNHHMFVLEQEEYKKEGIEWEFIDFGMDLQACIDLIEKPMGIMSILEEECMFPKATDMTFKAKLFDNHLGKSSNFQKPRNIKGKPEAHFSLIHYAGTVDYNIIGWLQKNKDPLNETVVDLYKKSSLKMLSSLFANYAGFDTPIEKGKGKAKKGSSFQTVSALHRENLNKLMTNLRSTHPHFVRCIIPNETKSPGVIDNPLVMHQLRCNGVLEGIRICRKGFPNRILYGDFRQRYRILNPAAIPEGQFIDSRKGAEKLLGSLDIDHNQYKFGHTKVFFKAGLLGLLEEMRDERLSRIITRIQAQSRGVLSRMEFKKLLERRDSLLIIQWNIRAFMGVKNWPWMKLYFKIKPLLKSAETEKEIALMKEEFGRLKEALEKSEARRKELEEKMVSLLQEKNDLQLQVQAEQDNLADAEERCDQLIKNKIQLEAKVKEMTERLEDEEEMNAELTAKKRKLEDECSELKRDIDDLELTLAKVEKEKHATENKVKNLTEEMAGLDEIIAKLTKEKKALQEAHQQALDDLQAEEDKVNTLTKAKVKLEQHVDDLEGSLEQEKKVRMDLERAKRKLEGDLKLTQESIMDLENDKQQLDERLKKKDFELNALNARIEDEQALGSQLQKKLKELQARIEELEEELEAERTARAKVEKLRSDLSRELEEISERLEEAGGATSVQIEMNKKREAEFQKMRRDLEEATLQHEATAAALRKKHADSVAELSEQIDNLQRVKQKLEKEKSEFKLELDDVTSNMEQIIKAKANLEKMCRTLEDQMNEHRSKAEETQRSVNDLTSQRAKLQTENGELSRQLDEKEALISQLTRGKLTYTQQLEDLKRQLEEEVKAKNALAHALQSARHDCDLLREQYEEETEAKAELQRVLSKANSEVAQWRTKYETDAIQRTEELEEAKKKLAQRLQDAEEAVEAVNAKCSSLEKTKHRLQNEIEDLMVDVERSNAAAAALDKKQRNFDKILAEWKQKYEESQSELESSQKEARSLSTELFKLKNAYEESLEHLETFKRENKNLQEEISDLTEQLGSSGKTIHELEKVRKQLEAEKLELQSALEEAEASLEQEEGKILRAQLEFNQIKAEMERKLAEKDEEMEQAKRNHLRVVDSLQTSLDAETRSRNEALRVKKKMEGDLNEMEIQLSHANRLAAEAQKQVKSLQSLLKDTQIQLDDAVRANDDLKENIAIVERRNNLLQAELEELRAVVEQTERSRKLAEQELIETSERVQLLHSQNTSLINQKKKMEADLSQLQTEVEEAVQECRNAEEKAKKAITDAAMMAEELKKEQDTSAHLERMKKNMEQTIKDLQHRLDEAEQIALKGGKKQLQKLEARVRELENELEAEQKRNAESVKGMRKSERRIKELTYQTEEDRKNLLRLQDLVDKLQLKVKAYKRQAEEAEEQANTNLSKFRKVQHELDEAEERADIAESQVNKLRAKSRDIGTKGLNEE
bovine cardiac myofibrils (full-length cardiac myosin ATPase in the native sarcomere), sequence (P85100 whole entry partner): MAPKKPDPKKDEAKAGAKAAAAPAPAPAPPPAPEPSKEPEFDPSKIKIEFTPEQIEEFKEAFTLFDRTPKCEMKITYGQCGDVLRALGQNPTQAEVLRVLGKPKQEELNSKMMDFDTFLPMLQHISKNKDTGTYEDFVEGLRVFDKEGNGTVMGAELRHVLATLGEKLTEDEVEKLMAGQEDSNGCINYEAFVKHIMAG
bovine cardiac myofibrils (full-length cardiac myosin ATPase in the native sarcomere), sequence (Q3SZE5 whole entry partner): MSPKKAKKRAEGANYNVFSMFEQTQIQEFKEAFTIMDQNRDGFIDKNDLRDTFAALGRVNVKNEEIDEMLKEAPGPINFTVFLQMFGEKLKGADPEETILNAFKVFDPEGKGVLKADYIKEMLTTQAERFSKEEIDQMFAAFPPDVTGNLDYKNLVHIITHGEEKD
In short: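 Triton-skinned bovine left-ventricle myofibrils (1 mg/mL) in PM 12 buffer (12 mM PIPES, 2 mM MgCl2, pH 6.8) with 50 μM ATP, 0.6 mM EGTA and CaCl2 set for 50% or 75% activation. Steady-state ATPase inhibition followed by PK/LDH-coupled NADH oxidation at 340 nm.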

[2] = test system: adult cardiac ventricular rat myocytes; experiment: Adult ventricular myocyte contractility (fractional shortening); format: cell-based; details: 5 min, 5 min perfusion, read-out: % FS (% reduction from baseline) ± SEM; for inhibition at 10 µM: 10 μM compound; for inhibition at 5 µM: 5 μM compound
Procedure: Adult male Sprague-Dawley rats were anesthetized and the hearts were quickly excised, rinsed and the ascending aorta was cannulated. Continuous retrograde perfusion was initiated on the hearts at a perfusion pressure of 60 cm H2O. Hearts were first perfused with a nominally Ca^2+-free modified Krebs solution of the following composition: 113 mM NaCl, 4.7 mM KCl, 0.6 mM KH2PO4, 0.6 mM Na2HPO4, 1.2 mM MgSO4, 12 mM NaHCO3, 10 mM KHCO3, 30 mM taurine, 5.5 mM glucose and 10 mM Hepes (all Sigma). This medium is not recirculated and is continually aerated with a 95% O2/5% CO2 mixture. After approximately 3 minutes the heart was perfused with a modified Krebs buffer supplemented with collagenase (Worthington) and 12.5 μM final calcium concentration. The heart was removed from the cannulae after the heart appeared blanched and soft in appearance. The atria and vessels were removed and the ventricles were gently dissected into smaller pieces with forceps. The tissue was homogenized by repeated pipette trituration and the collagenase reaction was stopped by 10% bovine calf serum (BCS), sedimentation and resuspension in perfusion buffer containing 5% BCS and 12.5 uM CaCl2). Myocytes were made calcium tolerant by stepwise addition of a CaCl2) solution to a final concentration of 1.2 mM. Cells were then washed and resuspended in Tyrode's buffer (137 mM NaCl, 3.7 mM KCl, 0.5 mM MgCl, 11 mM glucose, 4 mM Hepes, and 1.2 mM CaCl2), pH 7.4). Cells were kept for 60 min at 37° C. prior to initiating experiments and used within 5 hrs of isolation. […] Additionally, only cells whose basal contractility was between 3 and 8% were used in subsequent experiments with compounds.
Aliquots of myocytes in Tyrode's buffer were placed in perfusion chambers (series 20 RC-27NE; Warner Instruments) complete with heating platforms. Myocytes were allowed to attach, the chambers were heated to 37° C., and the cells were perfused with 37° C. Tyrode's buffer. Myocytes were field stimulated at 1 Hz in with platinum electrodes (20% above threshold). Only cells that had clear striations and were quiescent prior to pacing were used for contractility experiments. To determine basal contractility, myocytes were imaged through a 40× objective. […] Once cell contraction was stable over time, test compounds (0.01-15 μM) were perfused into the chambers on the myocytes for 5 minutes. Contractility of the myocytes and contraction and relaxation velocities were then recorded using edge detection.
Five or more individual myocytes were tested per compound from two or more different myocyte preparations. For each cell, twenty or more contractility transients at basal (defined as 1 min prior to compound infusion) and after compound addition (defined as 5 min after starting compound perfusion), were averaged and compared. These average transients were analyzed using the IonWizard software (IonOptix) to determine changes in diastolic length and fractional shortening. Fractional shortening was calculated as: ((resting length−length at peak contraction) divided by the resting length). The percent change in fractional shortening from baseline was calculated as: ((post-dose fractional shortening/basal fractional shortening)*100). The percent reduction in fractional shortening from baseline was calculated as: (100−percent change in fractional shortening from baseline). Maximum contraction and relaxation velocities (um/sec) was also determined. Results from individual cells are averaged and the SEM calculated.

[3] = test system: rat cardiac contractility (left ventricle fractional shortening); experiment: Echocardiography of acute effect on rat cardiac contractility, oral gavage; format: in vivo, Sprague Dawley rats; details: for inhibition in vivo at 10 mg/kg / IC50 / inhibition in vivo at 6 mg/kg / inhibition in vivo at 2 mg/kg / inhibition in vivo at 4.5 mg/kg: Rattus norvegicus; for inhibition in vivo at 10 mg/kg / inhibition in vivo at 6 mg/kg / inhibition in vivo at 2 mg/kg / inhibition in vivo at 4.5 mg/kg: oral gavage; for IC50 / IC10: oral dosing, estimated; for IC50: plasma concentration at which fractional shortening is 50% of pre-dose baseline; for IC10: plasma concentration at which
In short: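 Male Sprague Dawley rats under isoflurane (1-3%) anesthesia had three pre-dose baseline M-mode images of the left ventricle (parasternal long-axis view) taken at 1 minute intervals. Compound in 0.5% HPMC 2910: 0.1% Tween 80 suspension was then given as a single oral gavage dose (5 mL/kg). Fractional shortening was measured at chosen time points over 24 hours, with plasma concentrations sampled concurrently.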

[4] = test system: rat cardiac contractility (left ventricle fractional shortening); experiment: Echocardiography of acute effect on rat cardiac contractility, continuous IV infusion; format: in vivo, Sprague Dawley rats; details: Rattus norvegicus, plasma concentration at which fractional shortening is 50% of pre-dose baseline, estimated, read-out: IC50 (Mean ± S.D.)
Procedure: Assessment of in vivo cardiac function by echocardiography was performed in male Sprague Dawley rats under isoflurane (1-3%) anesthesia. 2-D M-mode images of the left ventricle were acquired in the parasternal long-axis view before, during, and after administration of compounds by continuous IV infusion or oral gavage. In vivo fractional shortening was determined by M-mode image analysis with the following calculation: ((End diastolic diameter−end systolic diameter)/end diastolic diameter×100). For continuous IV infusion experiments, three pre-dose baseline M-mode images were taken at 1 minute intervals prior to infusion of compound. Compounds were formulated in 50% Propylene Glycol (PG): 16% Captisol: 10% dimethylacetamide (DMA) and delivered via a jugular vein catheter at the rate of 1 mL/kg/h. During infusion, M-mode images were taken at 5 minute intervals. The infusion stopped when fractional shortening reached up to a 60% reduction from baseline. Blood samples were taken to determine the plasma concentration of the compounds. Data was reported as an estimated IC50 value, which is the concentration at which fractional shortening is 50% of the pre-dose baseline contractility.

[5] = 1 h, 1-2 h post dose, read-out: FS (% reduction from baseline) at 1-2 h post dose (Mean ± S.D.)
[6] = 4 h post dose, read-out: FS (% reduction from baseline) at 4 h post dose (Mean ± S.D.)

SMILES | CDMF75 IC15 [1] [nM] | IC50 [1] [nM] | IC50 [3] [nM] | IC50 [4] [nM] | inhibition at 10 µM [2] [%] | inhibition in vivo at 10 mg/kg [3, 5] [%] | inhibition in vivo at 10 mg/kg [3, 6] [%] | IC10 [3] [nM] | inhibition at 5 µM [2] [%] | inhibition in vivo at 6 mg/kg [3, 5] [%] | inhibition in vivo at 6 mg/kg [3, 6] [%] | inhibition in vivo at 2 mg/kg [3, 5] [%] | inhibition in vivo at 2 mg/kg [3, 6] [%] | inhibition in vivo at 4.5 mg/kg [3, 5] [%] | inhibition in vivo at 4.5 mg/kg [3, 6] [%]
Cc1cc(C(=O)NC2CCc3cc(-c4noc(C(F)F)n4)ccc32)ccn1 (stereo not drawn) [Compound 5, N-(5-(5-(difluoromethyl)-1,2,4-oxadiazol-3-yl)-2,3-dihydro-1H-inden-1-yl)-2-methylisonicotinamide] | 1140 | 5100 |  |  | 73.2 ± 7.1 |  |  |  |  |  |  |  |  |  | 
Cc1cc(C(=O)N[C@@H]2CCc3cc(-c4noc(C)n4)ccc32)ccn1 [Compound 31, (R)-2-methyl-N-(5-(5-methyl-1,2,4-oxadiazol-3-yl)-2,3-dihydro-1H-inden-1-yl)isonicotinamide] | 1000 | 3600 |  |  | 23.3 ± 18.9 |  |  |  |  |  |  |  |  |  | 
Cc1ncc(C(=O)N[C@@H]2CCc3cc(-c4noc(C(F)F)n4)ccc32)o1 [Compound 100, (R)—N-(5-(5-(difluoromethyl)-1,2,4-oxadiazol-3-yl)-2,3-dihydro-1H-inden-1-yl)-2-methyloxazole-5-carboxamide] | 700 | 3000 | 9100 | 8100 ± 260 |  |  |  | 2300 | 54.7 | 60 ± 4 | 40 ± 3 |  |  |  | 
CCc1nc(-c2ccc3c(c2)CC[C@H]3NC(=O)c2cnn(C)c2)no1 [Compound 184, (R)—N-(5-(5-ethyl-1,2,4-oxadiazol-3-yl)-2,3-dihydro-1H-inden-1-yl)-1-methyl-1H-pyrazole-4-carboxamide] |  |  | 7900 | 7200 ± 200 |  |  |  | 800 | 67.4 |  |  | 43 ± 9 | 31 ± 9 |  | 
CCc1nc(-c2ccc3c(c2)CC[C@H]3NC(=O)c2cnn(CCO)c2)no1 [Compound 474, (R)—N-(5-(5-ethyl-1,2,4-oxadiazol-3-yl)-2,3-dihydro-1H-inden-1-yl)-1-(2-hydroxyethyl)-1H-pyrazole-4-carboxamide] | 600 | 2200 | 1400 |  | 75.2 |  |  | 200 |  | 64 ± 8 | 27 ± 6 |  |  |  | 
CCc1nc(-c2ccc3c(c2)CC[C@H]3NC(=O)c2cnn(C[C@@H](C)O)c2)no1 [Compound 542, N-[(1R)-5-(5-ethyl-1,2,4-oxadiazol-3-yl)-2,3-dihydro-1H-inden-1-yl]-1-[(2R)-2-hydroxypropyl]-1H-pyrazole-4-carboxamide] | 900 | 3500 | 3500 |  | 68.4 |  |  | 900 |  |  |  |  |  | 71 ± 1 | 54 ± 7

The next lines start with results.

CDMF75 IC15 [1] [nM] | IC50 [1] [nM] | IC50 [3] [nM] | IC50 [4] [nM] | SMILES | inhibition at 10 µM [2] [%] | inhibition in vivo at 10 mg/kg [3, 5] [%] | inhibition in vivo at 10 mg/kg [3, 6] [%] | IC10 [3] [nM] | inhibition at 5 µM [2] [%] | inhibition in vivo at 6 mg/kg [3, 5] [%] | inhibition in vivo at 6 mg/kg [3, 6] [%] | inhibition in vivo at 2 mg/kg [3, 5] [%] | inhibition in vivo at 2 mg/kg [3, 6] [%] | inhibition in vivo at 4.5 mg/kg [3, 5] [%] | inhibition in vivo at 4.5 mg/kg [3, 6] [%]
500 | 2000 | 4900 |  | Cn1nnc(C(=O)N[C@@H]2CCc3cc(-c4noc(C(F)F)n4)ccc32)n1 [Compound 82, (R)-N-(5-(5-(difluoromethyl)-1,2,4-oxadiazol-3-yl)-2,3-dihydro-1H-inden-1-yl)-2-methyl-2H-tetrazole-5-carboxamide] | 89.6 | 65 ± 6 | 55 ± 8 | 1500 |  |  |  |  |  |  | 
300 | 1500 |  |  | Cc1cnoc1C(=O)N[C@@H]1CCc2cc(-c3noc(C(C)C)n3)ccc21 [Compound 116, (R)-N-(5-(5-isopropyl-1,2,4-oxadiazol-3-yl)-2,3-dihydro-1H-inden-1-yl)-4-methylisoxazole-5-carboxamide] | 72.5 |  |  |  |  |  |  |  |  |  | 
300 | 900 |  | 700 ± 20 | Cn1nccc1C(=O)N[C@@H]1COc2cc(-c3noc(C(F)F)n3)ccc21 [Compound 124, (S)—N-(6-(5-(difluoromethyl)-1,2,4-oxadiazol-3-yl)-2,3-dihydrobenzofuran-3-yl)-1-methyl-1H-pyrazole-5-carboxamide] | 84.6 |  |  |  |  |  |  |  |  |  | 
